Article PMC9061822, “A novel SRSF3 inhibitor, SFI003, exerts anticancer activity against colorectal cancer by modulating the SRSF3/DHCR24/ROS axis” (Cell Death Discovery, 2022)
pIC50: −log10 of the molar value.

Assays:
[1] = test system: ROS; test: Detection of ROS (DCFH-DA) in HCT-116 and SW480 cells; format: cell-based, Human; conditions: 20 μM SFI003 with 5 mM NAC or 100 μM Trolox, 72 h
Protocol: Following treatment with SFI003 or siRNA, the cells were washed with PBS and incubated with DCFH-DA for 20 min at 37 °C. After washing three times, the cells were collected and measured at 488 nm excitation and 525 nm emission by a microplate reader (Tecan, Switzerland) according to the manufacturer’s instructions (Beyotime, Shanghai, China). The protein concentrations were determined by using a BCA assay (TaKaRa, Kusatsu, Japan).

[2] = test system: HCT-116 and SW480 cells; test: WB of EMT and apoptosis markers with ROS scavengers; format: cell-based, Human; conditions: 20 μM SFI003 with 5 mM NAC or 100 μM Trolox, 72 h
Protocol: After cell lysates were prepared, protein concentrations were determined by a BCA assay (TaKaRa, Kusatsu, Japan). Equal amounts of protein were separated by SDS–PAGE and transferred to polyvinylidene difluoride membranes. After normalization, the blots were probed with appropriate antibodies, as described previously.

[3] = test system: HCT-116 xenografts; test: HCT-116 xenografts in SCID mice; format: in vivo; conditions: HCT-116 xenografts, 100 mg/kg orally, two weeks
Protocol: To explore the effect of SFI003 on the growth of CRC, approximately 3 × 10^6 HCT-116 cells or 8 × 10^6 SW480 cells were collected and mixed with Matrigel (Corning, NY, USA) at a 1:1 ratio by volume and then injected into the lower back region of mice. When tumors were palpable, mice were randomly divided into four groups. One group received vehicle as a control, while the other three groups were orally administered SFI003 at a dosage of 100 or 200 mg/kg or capecitabine at a dosage of 100 mg/kg for two continuous weeks. The tumor sizes and mouse body weights were monitored every other day. At the end of the experiment, tumors and blood samples were collected for further studies. The tumor size was evaluated according to Eq.: tumor size (mm^3) = (length × width^2) × 0.5.

[4] = target: T1, SRSF3 (Homo sapiens, UniProt P84103); test: Biological experimental assays of screened compounds against SRSF3; conditions: screening hit among 22 selected compounds
T1 sequence (P84103 1-164): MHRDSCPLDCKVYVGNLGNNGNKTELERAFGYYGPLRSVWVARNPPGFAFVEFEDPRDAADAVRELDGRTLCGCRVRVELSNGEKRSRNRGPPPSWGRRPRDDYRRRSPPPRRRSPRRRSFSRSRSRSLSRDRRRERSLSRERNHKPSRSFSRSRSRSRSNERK

[5] = test system: HCT-116 cells; test: MTT assay in HCT-116 cells; format: cell-based, Human; conditions: Homo sapiens; HCT-116 cells, 72 h
Protocol: (§1) Human CRC cell lines were purchased from the American Type Culture Collection (VA, USA). HCT-116 cells were cultured in DMEM (HyClone, Utah, USA) containing 10% fetal bovine serum (FBS; Gibco, NY, USA). SW480 cells were cultured in RPMI 1640 medium (HyClone, Utah, USA) containing 10% FBS. All cells were cultured in an incubator (Thermo, CA, USA) at a constant temperature of 37 °C and 5% CO2. N-Acetylcysteine (NAC), Trolox, MLN4924, 5-Fu, and capecitabine were purchased from MedChemExpress LLC (Shanghai, China). MG132 was purchased from Santa Cruz Biotech (CA, USA). Chloroquine (CHQ) was purchased from Sigma (CA, USA). Rapamycin was purchased from Beyotime (Shanghai, China). Primary antibodies against SRSF3 and E-Cadherin were purchased from Abcam (Cambridge, UK). Primary antibodies against N-Cadherin, Caspase 3, DHCR24, CAT, Akt and phospho-Akt (Ser473) were purchased from Cell Signaling Technology (MA, USA). Primary antibodies against β-actin, mTOR, and phospho-mTOR ([…]) were purchased from Beyotime (Shanghai, China). Primary antibody against Vimentin was purchased from Proteintech (Wuhan, China). Primary antibody against Bcl-2 was purchased from Santa Cruz Biotech (CA, USA). Primary antibody against Flag was purchased from MBL Beijing Biotech (Beijing, China). CRC cells were transfected with 100 nM siRNA or treated with various doses of SFI003 for 24 h, 48 h, or 72 h before being subjected to MTT assay as described previously.

[6] = test system: SW480 cells; test: MTT assay in SW480 cells; format: cell-based, Human; conditions: Homo sapiens; SW480 cells, 72 h
Protocol: as §1

Cc1c(C)c2c(c(C)c1O)CCC(C)(C(=O)O)O2 (stereo not drawn) [Trolox] was tested, and the “effect on SFI003-induced ROS” value [1] was “significantly reversed” and the “effect on SFI003-induced apoptosis and migration disability” value [2] was “reversed”.

In the case of CCCCCOC(=O)Nc1nc(=O)n([C@@H]2O[C@H](C)[C@@H](O)[C@H]2O)cc1F [capecitabine, reference compound], the “number of tumors that disappeared” value [3] was “one”.

In the case of C/C(=N\Nc1nc(-c2ccc(O)cc2)cs1)C1=CSCN1 [compound 6], the “inhibitory activity against SRSF3” value [4] was “satisfactory inhibitory activity”.

CO[C@H]1C[C@@H]2CC[C@@H](C)[C@@](O)(O2)C(=O)C(=O)N2CCCC[C@H]2C(=O)O[C@H]([C@H](C)C[C@@H]2CC[C@@H](O)[C@H](OC)C2)CC(=O)[C@H](C)/C=C(\C)[C@@H](O)[C@@H](OC)C(=O)[C@H](C)C[C@H](C)/C=C/C=C/C=C/1C [rapamycin, reference compound] showed a pIC50 [5] of 4.48 and a pIC50 [6] of 4.78.
